These results are taken from US20260256789A1, “METHODS FOR TREATMENT OF CANCER” (Frontier Medicines Corporation, priority 2022, published 2026).

pIC50: −log10 of the molar value.

T1 sequence (P01116 1-169 isoform P01116-2 G12C/C51S/C80L/C118S): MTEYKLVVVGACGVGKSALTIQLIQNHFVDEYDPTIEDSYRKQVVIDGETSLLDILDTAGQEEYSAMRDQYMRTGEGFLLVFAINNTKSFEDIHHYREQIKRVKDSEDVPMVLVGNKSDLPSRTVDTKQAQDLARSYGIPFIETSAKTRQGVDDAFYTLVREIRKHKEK

The assay concerns the target T1, KRAS G12C (GMPPNP-loaded) and cRAF Ras-binding domain (Homo sapiens, UniProt P01116, C118S/C51S/C80L/G12C).
T1 construct: truncated version comprising amino acids 1-169
In words: Inhibition of KRAS G12C and cRAF binding (AlphaScreen). To be noted: KRAS G12C preloaded with GTP analogue GMPPNP, 2 hours preincubation. The procedure, abridged: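 Compounds (10-point, 1:3 from 50 μM; 2% DMSO) were incubated 2 h at room temperature with 0.5 nM GMPPNP-preloaded truncated Cys-light KRAS G12C, then 60-90 min with 0.75 nM GST-RBD of cRAF and AlphaScreen beads. Signal at 570 nm gave IC50 by 4-parameter regression, and a biotin-AviTag-GST counter assay excluded interference with the AlphaScreen readout.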
On the technique in general: In Alpha technology, singlet oxygen from a donor bead excites a nearby acceptor bead.
As a reminder, the pIC50 is the IC50 on a negative log10 scale, so that one unit is a factor of ten. Low readings indicate a high IC50, high ones a low IC50. In turn, `Cc1cc(N)nc(N2CCc3c(nc(OC[C@@]45CCCN4C[C@H](F)C5)nc3N(C)[C@@H]3CCN(C(=O)/C=C/c4nc(C(C)C)no4)C3)C2)c1C(F)(F)F` [Example 147, (E)-1-((R)-3-((7-(6-amino-4-methyl-3-(trifluoromethyl)pyridin-2-yl)-2-(((2R,7aS)-2-fluorotetrahydro-1H-pyrrolizin-7a(5H)-yl)methoxy)-5,6,7,8-tetrahydropyrido[3,4-d]pyrimidin-4-yl)(methyl)amino)pyrrolidin-1-yl)-3-(3-isopropyl-1,2,4-oxadiazol-5-yl)prop-2-en-1-one] showed a pIC50 of no more than 6.30.

`C=CC(=O)N1CC[C@@H](N(C)c2nc(OCC34CCCN3CCC4)nc3c2C[C@H](C)[C@@H](c2nc(N)cc(C)c2C(F)(F)F)C3)C1` [Example 148, 1-((R)-3-(((6S,7S)-7-(6-amino-4-methyl-3-(trifluoromethyl)pyridin-2-yl)-6-methyl-2-((tetrahydro-1H-pyrrolizin-7a(5H)-yl)methoxy)-5,6,7,8-tetrahydroquinazolin-4-yl)(methyl)amino)pyrrolidin-1-yl)prop-2-en-1-one] showed a pIC50 of 6.30 to 7.00.

`C=CC(=O)N1CC[C@@H](N(C)c2nc(OCC34CCCN3CCC4)nc3c2C[C@@H](C)[C@H](c2nc(N)cc(C)c2C(F)(F)F)C3)C1` [Example 149, 1-((R)-3-(((6R,7R)-7-(6-amino-4-methyl-3-(trifluoromethyl)pyridin-2-yl)-6-methyl-2-((tetrahydro-1H-pyrrolizin-7a(5H)-yl)methoxy)-5,6,7,8-tetrahydroquinazolin-4-yl)(methyl)amino)pyrrolidin-1-yl)prop-2-en-1-one] gave a pIC50 of no more than 6.30.

On to `Cc1noc(/C=C/C(=O)N2CC[C@@H](N(C)c3nc(OC[C@@]45CCCN4C[C@H](F)C5)nc4c(F)c(-c5nc(N)cc6cccc(Cl)c56)ncc34)C2)n1` [Example 150, (E)-1-((R)-3-((7-(3-amino-8-chloroisoquinolin-1-yl)-8-fluoro-2-(((2R,7aS)-2-fluorotetrahydro-1H-pyrrolizin-7a(5H)-yl)methoxy)pyrido[4,3-d]pyrimidin-4-yl)(methyl)amino)pyrrolidin-1-yl)-3-(3-methyl-1,2,4-oxadiazol-5-yl)prop-2-en-1-one], for which the pIC50 is greater than 8.00.

For the molecule `CN(CC1CN(C(=O)/C=C/c2nc(C(C)(C)O)no2)C1)c1nc(OC[C@@]23CCCN2C[C@H](F)C3)nc2c(F)c(-c3nc(N)cc4cccc(Cl)c34)ncc12` [Example 151], the pIC50 is greater than 8.00.

The molecule `Cc1cc(N)nc(-c2ncc3c(N(C)CC4CN(C(=O)/C=C/c5nc(C(C)C)no5)C4)nc(OC[C@@]45CCCN4C[C@H](F)C5)nc3c2F)c1C(F)(F)F` [Example 153] gave a pIC50 greater than 8.00.

The molecule `Cc1cc(N)nc(-c2ncc3c(N(C)CC4CN(C(=O)/C=C/c5nc(C(C)C)no5)C4)nc(OC[C@@]45CCCN4C[C@H](F)C5)nc3c2F)c1C(F)(F)F` [Example 154] gave a pIC50 of 7.00 to 8.00.

On to `Cc1nccc(/C=C/C(=O)N2CC(CN(C)c3nc(OC[C@@]45CCCN4C[C@H](F)C5)nc4c(F)c(-c5nc(N)cc6cccc(Cl)c56)ncc34)C2)n1` [Example 156, (E)-1-(3-(((7-(3-amino-8-chloroisoquinolin-1-yl)-8-fluoro-2-(((2R,7aS)-2-fluorotetrahydro-1H-pyrrolizin-7a(5H)-yl)methoxy)pyrido[4,3-d]pyrimidin-4-yl)(methyl)amino)methyl)azetidin-1-yl)-3-(2-methylpyrimidin-4-yl)prop-2-en-1-one], for which the pIC50 was 7.00 to 8.00.

Consider `Cc1nsc(/C=C/C(=O)N2CC[C@@H](N(C)c3nc(OC[C@@]45CCCN4C[C@H](F)C5)nc4c3C[C@@H](C)[C@H](c3nc(N)cc(C)c3C(F)(F)F)C4)C2)n1` [Example 158, (E)-1-((R)-3-(((6R,7R)-7-(6-amino-4-methyl-3-(trifluoromethyl)pyridin-2-yl)-2-(((2R,7aS)-2-fluorotetrahydro-1H-pyrrolizin-7a(5H)-yl)methoxy)-6-methyl-5,6,7,8-tetrahydroquinazolin-4-yl)(methyl)amino)pyrrolidin-1-yl)-3-(3-methyl-1,2,4-thiadiazol-5-yl)prop-2-en-1-one], for which the pIC50 was 7.00 to 8.00.

`Cc1cc(N)nc(-c2ncc3c(N(C)[C@@H]4CCN(C(=O)C#CCN(C)C)C4)nc(OC[C@@]45CCCN4C[C@H](F)C5)nc3c2F)c1C(F)(F)F` [Example 159] showed a pIC50 greater than 8.00.

Regarding `Cc1nsc(/C=C/C(=O)N2CC[C@@H](N(C)c3nc(OC[C@@]45CCCN4C[C@H](F)C5)nc4c(F)c(-c5nc(N)cc(C)c5C(F)(F)F)ncc34)C2)n1` [Example 164], the pIC50 is 7.00 to 8.00.

On to `C=CC(=O)N1CC[C@@H](N(C)c2nc(OC[C@@]34CCCN3C[C@H](F)C4)nc3c(F)c(-c4nc(N)ccc4C4CC4)ncc23)C1` [Example 166, 1-((R)-3-((7-(6-amino-3-cyclopropylpyridin-2-yl)-8-fluoro-2-(((2R,7aS)-2-fluorotetrahydro-1H-pyrrolizin-7a(5H)-yl)methoxy)pyrido[4,3-d]pyrimidin-4-yl)(methyl)amino)pyrrolidin-1-yl)prop-2-en-1-one], for which the pIC50 is no more than 6.30.

Molecule `CN(c1nc(OC[C@@]23CCCN2C[C@H](F)C3)nc2c(F)c(-c3nc(N)cc4cccc(F)c34)ncc12)[C@@H]1CCN(C(=O)/C=C/CN2CCOCC2)C1` [Example 167, (E)-1-((R)-3-((7-(3-amino-8-fluoroisoquinolin-1-yl)-8-fluoro-2-(((2R,7aS)-2-fluorotetrahydro-1H-pyrrolizin-7a(5H)-yl)methoxy)pyrido[4,3-d]pyrimidin-4-yl)(methyl)amino)pyrrolidin-1-yl)-4-morpholinobut-2-en-1-one] gave a pIC50 of no more than 6.30.

Molecule `CN(CC1CN(C(=O)/C=C/c2nc(C(C)(F)F)no2)C1)c1nc(OC[C@@]23CCCN2C[C@H](F)C3)nc2c(F)c(-c3nc(N)cc4cccc(Cl)c34)ncc12` [Example 169, (E)-1-(3-(((7-(3-amino-8-chloroisoquinolin-1-yl)-8-fluoro-2-(((2R,7aS)-2-fluorotetrahydro-1H-pyrrolizin-7a(5H)-yl)methoxy)pyrido[4,3-d]pyrimidin-4-yl)(methyl)amino)methyl)azetidin-1-yl)-3-(3-(1,1-difluoroethyl)-1,2,4-oxadiazol-5-yl)prop-2-en-1-one] showed a pIC50 greater than 8.00.

`Cc1cc(N)nc(-c2ncc3c(N(C)[C@@H]4CCN(C(=O)/C=C/c5nc(C(C)C)no5)C4)nc(OC[C@@]45CCCN4C[C@H](F)C5)nc3c2F)c1C1CC1` [Example 170] showed a negative logarithm of the IC50 (pIC50) of 7.00 to 8.00.

In turn, `C=CC(=O)N1CC[C@@H](N(C)c2nc(OC[C@@]34CCCN3C[C@H](F)C4)nc3c(F)c(-c4nc(N)cc(C)c4C)ncc23)C1` [Example 171] gave a pIC50 of 6.30 to 7.00.

On to `Cc1cc(N)nc(-c2ncc3c(N(C)CC4CN(C(=O)/C=C/c5nc(C(C)C)no5)C4)nc(OC[C@@]45CCCN4C[C@H](F)C5)nc3c2F)c1C1CC1` [Example 175], for which the pIC50 was 6.30 to 7.00.

The molecule `Cc1cc(N)nc(-c2ncc3c(N(C)CC4CN(C(=O)/C=C/c5nc(C6CC6)no5)C4)nc(OC[C@@]45CCCN4C[C@H](F)C5)nc3c2F)c1C(F)(F)F` [Example 176] showed a pIC50 greater than 8.00.

In the case of `CC(C)c1noc(/C=C/C(=O)N2CC[C@@H](N(C)c3nc(OC[C@@]45CCCN4C[C@H](F)C5)nc4c(F)c(-c5nc(N)ccc5F)ncc34)C2)n1` [Example 178, (E)-1-((R)-3-((7-(6-amino-3-fluoropyridin-2-yl)-8-fluoro-2-(((2R,7aS)-2-fluorotetrahydro-1H-pyrrolizin-7a(5H)-yl)methoxy)pyrido[4,3-d]pyrimidin-4-yl)(methyl)amino)pyrrolidin-1-yl)-3-(3-isopropyl-1,2,4-oxadiazol-5-yl)prop-2-en-1-one], the pIC50 is no more than 6.30.

In turn, `C=CC(=O)N1CC[C@@H](N(C)c2nc(OC[C@@]34CCCN3C[C@H](F)C4)nc3c(F)c(-c4cn[nH]c4C4CC4)ncc23)C1` [Example 179] gave a negative logarithm of the IC50 (pIC50) of no more than 6.30.

Consider `CN1CC[C@@H]1/C=C/C(=O)N1CC[C@@H](N(C)c2nc(OC[C@@]34CCCN3C[C@H](F)C4)nc3c(F)c(-c4cc(O)cc(F)c4C4CC4)ncc23)C1` [Example 180], for which the pIC50 is greater than 8.00.

As to `C=CC(=O)N1CC[C@@H](N(C)c2nc(OC[C@@]34CCCN3C[C@H](F)C4)nc3c(F)c(-c4ccccc4C(F)F)ncc23)C1` [Example 181], the negative-log IC50 (pIC50) is no more than 6.30.

On to `C=CC(=O)N1CC[C@@H](N(C)c2nc(OC[C@@]34CCCN3C[C@H](F)C4)nc3c(F)c(-c4ccccc4OC(F)F)ncc23)C1` [Example 182], for which the pIC50 was no more than 6.30.

Molecule `C=CC(=O)N1CC[C@@H](N(C)c2nc(OC[C@@]34CCCN3C[C@H](F)C4)nc3c(F)c(-c4scnc4C)ncc23)C1` [Example 183] showed a pIC50 of no more than 6.30.

For `CN(C)C/C=C/C(=O)N1CC[C@@H](N(C)c2nc(OC[C@@]34CCCN3C[C@H](F)C4)nc3c(F)c(-c4cccc(Cl)c4C4CC4)ncc23)C1` [Example 184], the pIC50 is 7.00 to 8.00.

The molecule `C=CC(=O)N1CC[C@@H](N(C)c2nc(OC[C@@]34CCCN3C[C@H](F)C4)nc3c(F)c(-c4cc(OC(F)F)ccc4Cl)ncc23)C1` [Example 186] showed a pIC50 of no more than 6.30.

On to `C=CC(=O)N1CC[C@@H](N(C)c2nc(OC[C@@]34CCCN3C[C@H](F)C4)nc3c(F)c(-c4cccc(OC(F)F)c4C4CC4)ncc23)C1` [Example 187], for which the pIC50 was no more than 6.30.

`C=CC(=O)N1CC[C@@H](N(C)c2nc(OC[C@@]34CCCN3C[C@H](F)C4)nc3c(F)c(-c4cncc(F)c4C4CC4)ncc23)C1` [Example 188] had a pIC50 of no more than 6.30.

As for `C=CC(=O)N1CC[C@@H](N(C)c2nc(OC[C@@]34CCCN3C[C@H](F)C4)nc3c(F)c(-c4cccc(OC)c4C4CC4)ncc23)C1` [Example 189], the pIC50 was no more than 6.30.

Consider `C=CC(=O)N1CC[C@@H](N(C)c2nc(OC[C@@]34CCCN3C[C@H](F)C4)nc3c(F)c(-c4cncc5ccc(F)c(F)c45)ncc23)C1` [Example 190], for which the negative logarithm of the IC50 (pIC50) was no more than 6.30.

`C=CC(=O)N1CC[C@@H](N(C)c2nc(OC[C@@]34CCCN3C[C@H](F)C4)nc3c(F)c(-c4cc(F)cc(Cl)c4C4CC4)ncc23)C1` [Example 191] had a pIC50 of 6.30 to 7.00.
